Measured values published in patent US20080008660A1, “Antimicrobially active compounds for treating bad breath” (Symrise GmbH & Co. KG, priority 2006, published 2008).
Converted amounts (≈) assume the structure as drawn.

Tests used:
Assay type in all cases: cell-based
[1] = tested on: fresh morning saliva; assay: In-vitro test for reducing bad breath (liquid medium inoculated with fresh morning saliva, smelt by a test panel); conditions: for formation of bad breath / smell after incubation: 0.1%
Protocol: This test is based on the work of Goldberg and Rosenberg (Production of Oral Malodor in an in vitro System, S. Goldberg and M. Rosenberg, pp. 143-150, in: Bad Breath—A multidisciplinary Approach, Eds: D. van Steenberghe, M. Rosenberg, Leuven University Press, 1996) and was adapted for the purposes of better reproducibility.
A sterile liquid medium that is inoculated with fresh morning saliva is incubated for a few days at 37° C. and then smelt by a test panel.
An intensive typical smell of bad breath had formed. Non-inoculated controls only have a weak to moderate smell of bad breath.
Triclosan® in a concentration of 0.05% was added as control for the tests.
The minimum effective concentrations of various compounds of the Formula 1 or of the Formula 1A at which no smell could be detected are shown hereinafter: […]

[2] = tested on: Escherichia coli; assay: Effect against germs not connected with bad breath; conditions: 1,000 ppm
[3] = tested on: Candida albicans; assay: Effect against germs not connected with bad breath; conditions: 1,000 ppm
[4] = tested on: Aspergillus niger; assay: Effect against germs not connected with bad breath; conditions: 1,000 ppm
[5] = tested on: Fusobacterium nucleatum; assay: Minimal inhibiting concentration, series dilution test
Protocol: (§1) The minimal inhibiting concentration (MIC) was determined by way of example for 2-(benzoylamino) benzoic acid (Compound 27) in a series dilution test against various germs found in the mouth.

[6] = tested on: Staphylococcus aureus; assay: as above; conditions: bactericide
Protocol: as §1

[7] = tested on: Prevotella intermedia; assay: as above
Protocol: as §1

[8] = tested on: Veillonella parvula; assay: as above; conditions: bactericide
Protocol: as §1

[9] = medium inoculated with fresh morning saliva, incubated a few days at 37° C., test panel

| Structure (SMILES) | minimum effective concentration at which no smell could be detected [1, 9] [%] | further results |
| --- | --- | --- |
| O=C(/C=C/c1ccc(O)c(O)c1)Nc1ccccc1C(=O)O [Compound 2, 2-{[(2E)-3-(3,4-dihydroxyphenyl)prop-2-enoyl]amino}benzoic acid] | 0.005 |  |
| O=C(/C=C/c1ccc(O)c(O)c1)Nc1ccc(O)cc1C(=O)O [Compound 3, 5-hydroxy-2-{[(2E)-3-(3,4-dihydroxyphenyl)prop-2-enoyl]amino}benzoic acid] | 0.0025 |  |
| COc1cc(/C=C/C(=O)Nc2ccc(O)cc2C(=O)O)ccc1O [Compound 4, 5-hydroxy-2-{[(2E)-3-(4-hydroxy-3-methoxyphenyl)prop-2-enoyl]amino}benzoic acid] | 0.01 | minimum effective concentration at which no smell could be detected ([1]; same value given in ppm): (=100 ppm) |
| O=C(/C=C/c1ccc(O)cc1)Nc1ccc(O)cc1C(=O)O [Compound 7, 5-hydroxy-2-{[(2E)-3-(4-hydroxyphenyl)prop-2-enoyl]amino}benzoic acid] | 0.005 | minimum effective concentration at which no smell could be detected ([1]; same value given in ppm): (=50 ppm) |
| O=C(CCc1ccc(O)cc1)Nc1ccccc1C(=O)O [Compound 8, 2-{[3-(4-hydroxyphenyl)propanoyl]amino}benzoic acid] | 0.005 |  |
| COc1cc(/C=C/C(=O)Nc2ccccc2C(=O)O)ccc1O [Compound 9, 2-{[(2E)-3-(4-hydroxy-3-methoxyphenyl)prop-2-enoyl]amino}benzoic acid] | 0.005 |  |
| O=C(/C=C/c1ccc(O)cc1)Nc1ccccc1C(=O)O [Compound 10, 2-{[(2E)-3-(4-hydroxyphenyl)prop-2-enoyl]amino}benzoic acid] | 0.0025 | effect against the germ [2]: did not have any effect; effect against the germ [3]: did not have any effect; minimum effective concentration at which no smell could be detected ([1]; same value given in ppm): (=25 ppm); effect against the germ [4]: did not have any effect |
| O=C(/C=C/c1ccccc1)Nc1ccc(O)cc1C(=O)O [Compound 12, 5-Hydroxy-2-{[(2E)-3-phenylprop-2-enoyl]amino}benzoic acid] | 0.0025 |  |
| COc1ccc(/C=C/C(=O)Nc2ccc(O)cc2C(=O)O)cc1OC [Compound 13, 5-Hydroxy-2-{[(2E)-3-(3,4-dimethoxyphenyl)prop-2-enoyl]amino}benzoic acid] | 0.01 |  |
| O=C(Nc1ccccc1C(=O)O)c1ccc(O)c(O)c1 [Compound 20, 2-[(3,4-dihydroxybenzoyl)amino]benzoic acid] | 0.005 |  |
| COc1ccc(C(=O)Nc2ccccc2C(=O)O)cc1O [Compound 23, 2-[(3-hydroxy-4-methoxybenzoyl)amino]benzoic acid] | 0.0025 |  |
| O=C(Nc1ccccc1C(=O)O)c1ccc(O)cc1 [Compound 24, 2-[(4-hydroxybenzoyl)amino]benzoic acid] | 0.001 |  |
| COc1cc(C(=O)Nc2ccccc2C(=O)O)ccc1O [Compound 25, 2-[(4-hydroxy-3-methoxybenzoyl)amino]benzoic acid] | 0.001 |  |
| O=C(Nc1ccccc1C(=O)O)c1ccc(O)cc1O [Compound 26, 2-[(2,4-dihydroxybenzoyl)amino]benzoic acid] | 0.0025 |  |
| O=C(Nc1ccccc1C(=O)O)c1ccccc1 [Compound 27, 2-(benzoylamino)-benzoic acid] | 0.0025 | smell after incubation ([1]; 0.001 wt. %): a non unpleasant smell could be detected, which did not bear any resemblance to bad breath; smell after incubation ([1]; 0.0025 wt. %): no smell; MIC ([5]; bactericide): 1000 µg/mL (≈ 4150 µM); MIC ([5]; bacteriostatic): 500 µg/mL (≈ 2070 µM); MIC [6]: 500 µg/mL (≈ 2070 µM); MIC ([7]; bactericide): 1000 µg/mL (≈ 4150 µM); MIC ([7]; bacteriostatic): 500 µg/mL (≈ 2070 µM); MIC [8]: 250 µg/mL (≈ 1040 µM) |
| O=C(Nc1ccccc1C(=O)O)c1cccc(O)c1 [Compound 28, 2-[(3-hydroxybenozyl)amino]benzoic acid] | 0.0005 | minimum effective concentration at which no smell could be detected ([1]; same value given in ppm): (=5 ppm) |
| O=C(Nc1ccccc1C(=O)O)c1ccccc1O [Compound 29, 2-[(2-hydroxybenzoyl)amino]benzoic acid] | 0.0025 |  |
| O=C(Nc1cc(O)ccc1C(=O)O)c1ccc(O)cc1 [Compound 75, 4-hydroxy-2-[(4-hydroxybenzoyl]amino}benzoic acid] | 0.01 |  |
| O=C(Nc1ccccc1)c1ccccc1O [Compound 100, Salicylanilide] | 0.0025 |  |
| COc1ccc(/C=C/C(=O)Nc2ccccc2C(=O)O)cc1 [Compound 101, 2-{[(2E)-3-(4-methoxyphenyl)prop-2-enoyl]amino}benzoic acid] | 0.0025 |  |
| O=C(/C=C/c1ccccc1)Nc1ccccc1C(=O)O [Compound 102, 2-{[(2E)-3-phenylprop-2-enoyl]amino}benzoic acid] | 0.001 | minimum effective concentration at which no smell could be detected ([1]; same value given in ppm): (=10 ppm) |
| Oc1cc(Cl)ccc1Oc1ccc(Cl)cc1Cl [Triclosan, reference compound] |  | smell after incubation ([1]; 0.05%, control): the same smell as the non-inoculated flasks |
| C=CCc1ccc(O)c(OC)c1 [eugenol, reference compound] |  | formation of bad breath / smell after incubation [1]: suppressed the formation of bad breath |
| Cc1ccc(C(C)C)c(O)c1 [thymol, reference compound] |  | formation of bad breath / smell after incubation [1]: suppressed the formation of bad breath |
